Reference: PubChem BioAssay (NCI)
Several values for one entry are separate records, joined by “and”; a condition that tells them apart may be missing. Identical values can stand only once.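 In this assay, cells in 96-well plates receive the compound at five concentrations for 48 hours. Endpoints are linearly interpolated between the surrounding concentrations. At the GI50, growth is halved. TGI: concentration producing complete growth inhibition.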

Experiments:
Test in all cases: NCI-60 cell line screen, 48 h
SF-295 CNS = test system: SF-295 CNS
HCT-15 colon = test system: HCT-15 colon
SK-MEL-5 melanoma = test system: SK-MEL-5 melanoma
EKVX NSCLC = test system: EKVX NSCLC
SNB-19 CNS = test system: SNB-19 CNS
OVCAR-5 ovarian = test system: OVCAR-5 ovarian
SK-OV-3 ovarian = test system: SK-OV-3 ovarian
MALME-3M melanoma = test system: MALME-3M melanoma
MDA-N = test system: MDA-N
A549 NSCLC = test system: A549 NSCLC

| SMILES | TGI (SF-295 CNS) [µM] | TGI (HCT-15 colon) [µM] | TGI (SK-MEL-5 melanoma) | TGI (EKVX NSCLC) | TGI (SNB-19 CNS) | TGI (OVCAR-5 ovarian) | TGI (SK-OV-3 ovarian) | TGI (MALME-3M melanoma) [µM] | TGI (MDA-N) [µM] | GI50 (SNB-19 CNS) | GI50 (A549 NSCLC) [µM] | TGI (A549 NSCLC) | GI50 (OVCAR-5 ovarian) [µM] | GI50 (SK-OV-3 ovarian) | GI50 (MALME-3M melanoma) [µM] | GI50 (SK-MEL-5 melanoma) |
| --- | --- | --- | --- | --- | --- | --- | --- | --- | --- | --- | --- | --- | --- | --- | --- | --- |
| C[N+](C)(C)c1ccc(C(N)C(=O)O)cc1 (configuration not stated) | > 100 | > 100 | > 100 µM | > 100 µM | > 100 µM | > 100 µM | > 100 µM | > 100 | > 100 | – | – | – | – | – | – | – |
| Cc1cc(C)nc(SC2=C(Nc3ccc(C)c(Cl)c3)C(=O)N(Cc3ccccc3)C2=O)n1 | – | – | – | – | > 160 µM | > 160 µM | > 160 µM | > 160 | – | > 160 µM | > 160 | > 160 µM | > 160 | > 160 µM | > 160 | – |
| O=S(Nc1ccccc1)c1ccc(N2CCOCC2)cc1 (configuration not stated) | > 100 | > 100 | > 100 µM | > 100 µM | > 100 µM | – | – | > 100 | – | – | – | > 100 µM | – | – | – | – |
| Cc1cc(S(=O)(=O)N/C(=C(\C#N)C(=O)c2ccc(Cl)cc2)[n+]2ccc(N(C)C)cc2)c([S-])cc1Cl | > 100 | > 100 | > 100 µM | – | – | > 100 µM | 96.7 µM | 80 | > 100 | – | – | > 100 µM | – | – | – | – |
| NC(=O)NNc1nc(-c2ccccc2)cs1 | > 100 | > 100 | > 100 µM | > 100 µM | > 100 µM | > 100 µM | > 100 µM | > 100 | – | – | – | > 100 µM | – | – | – | – |
| ClCCCc1ccccc1C1=NCCc2ccccc21 | > 100 | > 100 | 40.5 µM | > 100 µM | > 100 µM | > 100 µM | > 100 µM | – | – | – | – | > 100 µM | – | – | – | – |
| CC(=O)Oc1cc2c(cc1OC(C)=O)OCC(c1ccc(C)cc1)C2 (configuration not stated) | 76.3 | 40.7 | 13.6 µM | 42.1 µM | 124 µM | 79 µM | 112 µM | 32 | – | – | – | 64.6 µM | – | – | – | – |
| CC(=O)OCC1OC(SC2=N/C(=C\c3ccc(Br)s3)C(=O)N2CN2CCOCC2)C(OC(C)=O)C(OC(C)=O)C1OC(C)=O (configuration not stated) | 52 | 49.1 | 33.5 µM | 97.4 µM | 46.7 µM | 72.1 µM | – | 35.6 | 47.7 | – | – | – | – | – | – | – |
| O=C1NC(=O)C(C(CC(=O)c2ccc([N+](=O)[O-])cc2)c2ccccc2)C(=O)N1 (configuration not stated) | 54.9 | > 100 | > 100 µM | – | > 100 µM | > 100 µM | > 100 µM | 42.9 | > 100 | – | – | > 100 µM | – | – | – | – |
| O=C(NCCCCCCCCCCCCNC(=O)Nc1cccc2ccccc12)Nc1cccc2ccccc12 | 27.7 | 36.8 | 46.2 µM | 43.3 µM | 30.1 µM | 79.6 µM | – | 34.4 | 31.2 | – | – | 32.9 µM | – | – | – | – |
| CCOP(=O)(/C=C\n1cc(C)c(=O)[nH]c1=O)OCC | > 100 | > 100 | > 100 µM | > 100 µM | > 100 µM | > 100 µM | > 100 µM | – | > 100 | – | – | > 100 µM | – | – | – | – |
| CCOc1ccc(N/C(=C(/C(Cl)=C(/Cl)N(CC)CC)[N+](=O)[O-])n2nnc3ccccc32)cc1 | > 100 | 38.4 | – | 69.6 µM | > 100 µM | > 100 µM | > 100 µM | 39 | 70.4 | – | – | > 100 µM | – | – | – | – |
| O=C1CCCCC/C1=C\c1ccc([N+](=O)[O-])cc1 | > 100 | – | 43.7 µM | > 100 µM | > 100 µM | > 100 µM | > 100 µM | > 100 | > 100 | – | – | > 100 µM | – | – | – | – |
| COC(=O)c1cc(=O)[nH]c(=O)[nH]1 | > 100 | > 100 | > 100 µM | > 100 µM | > 100 µM | > 100 µM | – | > 100 | > 100 | – | – | > 100 µM | – | – | – | – |
| O=c1[nH]nc(-c2ccccc2)n1/N=C\c1ccccc1 | > 100 | > 100 | > 100 µM | > 100 µM | – | > 100 µM | – | > 100 | > 100 | – | – | > 100 µM | – | – | – | – |
| CN(C)c1nc(N)nc(CS)n1 | > 100 | > 100 | > 100 µM | > 100 µM | > 100 µM | > 100 µM | > 100 µM | – | – | – | – | > 100 µM | – | – | – | – |
| Cc1cccc(Nc2nn3c(=O)c4c5c(sc4nc3s2)CCCC5)c1 | 14.4 | > 100 | > 100 µM | – | > 100 µM | > 100 µM | > 100 µM | – | > 100 | – | – | > 100 µM | – | – | – | – |
| [Cl][Sn]([c]1ccccc1)([c]1ccccc1)[c]1ccccc1 | – | – | 0.325 µM and 0.242 µM and 0.158 µM | 0.985 µM and 0.239 µM and 0.119 µM | 1.07 µM and 0.24 µM and 0.129 µM | 0.456 µM and 0.266 µM and 0.0901 µM | 0.696 µM and 0.335 µM | – | – | 0.314 µM and 0.113 µM and 0.0355 µM | – | 0.41 µM and 0.176 µM and 0.0469 µM | – | 0.239 µM and 0.178 µM | – | 0.166 µM and 0.114 µM and 0.0408 µM |
| C=C[C@@H](C)[C@H](NS(=O)(=O)c1ccc(C)cc1)C(=O)OCC | 63.4 | > 100 | – | > 100 µM | > 100 µM | > 100 µM | > 100 µM | > 100 | 83.6 | – | – | > 100 µM | – | – | – | – |
| C/C=C/c1cc(=O)c([C@@H]2OC(=O)c3cc(OC)cc(OC)c32)co1 | > 100 | – | > 100 µM | > 100 µM | > 100 µM | – | – | – | – | – | – | > 100 µM | – | – | – | – |
| NC(=O)c1cccc([N+](=O)[O-])c1 | > 100 | > 100 | > 100 µM | > 100 µM | > 100 µM | – | > 100 µM | > 100 | – | – | – | > 100 µM | – | – | – | – |
| COc1cc([C@@H]2c3cc4c(cc3[C@@H](c3c(O)cc(O)c5c3O[C@H](c3ccc(O)c(O)c3)[C@@H](O)C5)[C@H]3COC(=O)[C@H]23)OCO4)cc(OC)c1OC | 3.45 | > 100 | 92.7 µM | > 100 µM | > 100 µM | 69.7 µM | 3.36 µM | > 100 | – | – | – | > 100 µM | – | – | – | – |
| CN(C)C(=O)OC1C(=O)N(C)c2ccc(Cl)cc2C2(c3ccccc3)N1C2(Cl)Cl (configuration not stated) | > 100 | > 100 | > 100 µM | > 100 µM | – | > 100 µM | > 100 µM | > 100 | – | – | – | – | – | – | – | – |
| N#CC1(C#N)NC(c2cccs2)C(C#N)(C#N)NC1c1cccs1 (configuration not stated) | > 100 | > 100 | 74.2 µM | > 100 µM | > 100 µM | 92.6 µM | > 100 µM | > 100 | – | – | – | > 100 µM | – | – | – | – |
